{"source": "patent US9288990B2", "about": "“Synergistic weed control from applications of penoxsulam and pethoxamid” (Dow AgroSciences, LLC, priority 2013, dated 2016)", "type_in_all_cases": "in vivo", "key": {"[1]": {"tested_on": "Polygonum persicaria L. (ladysthumb, POLPE)", "test": "Pre-emergence field trial, weed control of POLPE", "conditions": "54 days", "method": "(§1) Field trials were conducted with applications made in the area of naturally occurring weed populations in Germany, France, Hungary and Italy. The soil was treated prior to the emergence of target plants. All treatments were applied using a randomized complete block trial design, plots 3 meters (m) wide by 8-10 m long, with 3 replications per treatment.\n(§2) Treatments consisted of penoxsulam and pethoxamid, applied alone and in combination. Spray solutions were prepared using an appropriate amount of dilution to treat the area of the plots based on use rates and water volumes necessary based on a per hectacre basis. Spray solutions were prepared and applied with the specified active ingredients in single and two-way combinations to be able to perform Colby synergy calculations. Formulated products were applied to the soil with a backpack or bicycle compressed air sprayer equipped with flat fas nozzles calibrated to deliver from 200 to 300 L/ha at a normal spray height above the solid, at spray pressures ranging from 210 to 350 kilopascals (kPa).\n(§3) The treated plots and control plots were rated blind at various intervals after application. […]\n(§4) Colby's equation was used to determine the herbicidal effects expected from the mixtures, as described above. The results were measured at the evaluation intervals provided in Table 1 after the first application of the compositions. […]"}, "[2]": {"tested_on": "Mercurialis annua (annual mercury, MERAN)", "test": "Pre-emergence field trial, weed control of MERAN", "conditions": "29 days", "method": "as §1, §2, §3, §4"}, "[3]": {"tested_on": "Kickxia elantine (canker root, KICEL)", "test": "Pre-emergence field trial, weed control of KICEL", "method": "as §1, §2, §3, §4"}, "[4]": {"tested_on": "Ambrosia artemisiifolia L. (common ragweed, AMBEL)", "test": "Pre-emergence field trial, weed control of AMBEL", "method": "as §1, §2\n(§5) The treated plots and control plots were rated blind at various intervals after application. Ratings were based on a scale of 0-100%, as discussed above, wherein 0% indicates no control of the undesired vegetation and 100% indicates complete control of the undesired vegetation.\n(§6) Colby's equation was used to determine the herbicidal effects expected from the mixtures, as described above. The results were measured at the evaluation intervals provided in Table 1 after the first application of the compositions. […] The herbicide tank mix combinations tested, application rates and ratios employed, plant species tested, and results are given below."}, "[5]": {"tested_on": "Xanthium strumarium L. (common cocklebur, XANST)", "test": "Pre-emergence field trial, weed control of XANST", "method": "as §1, §2, §5, §6"}, "[6]": {"tested_on": "Echinochloa crus-galli (L.) P. Beauv. (barnyardgrass, ECHCG)", "test": "Pre-emergence field trial, weed control of ECHCG", "method": "as §1, §2, §5, §6"}, "[7]": {"tested_on": "Chenopodium album L. (common lambsquarters, CHEAL)", "test": "Pre-emergence field trial, weed control of CHEAL", "method": "as §1, §2, §5, §6"}, "[8]": {"conditions": "14 days, penoxsulam 5 g ai/ha alone"}, "[9]": {"conditions": "28 days, penoxsulam 5 g ai/ha alone"}, "[10]": {"conditions": "28 days, penoxsulam 10 g ai/ha alone"}, "[11]": {"conditions": "58 days, penoxsulam 5 g ai/ha alone"}, "[12]": {"conditions": "58 days, penoxsulam 10 g ai/ha alone"}, "[13]": {"conditions": "14 days, pethoxamid 1200 g ai/ha alone"}, "[14]": {"conditions": "28 days, pethoxamid 1200 g ai/ha alone"}, "[15]": {"conditions": "58 days, pethoxamid 1200 g ai/ha alone"}}}
{"compound": "COc1cnc(OC)n2nc(NS(=O)(=O)c3c(OCC(F)F)cccc3C(F)(F)F)nc12", "note": "[Penoxsulam]", "values": [{"measurement": "Mean % weed control", "setting": "[1]; penoxsulam 5 g ai/ha alone", "result": 90, "unit": "%"}, {"measurement": "Mean % weed control", "setting": "[2]; penoxsulam 10 g ai/ha alone", "result": 36.67, "unit": "%"}, {"measurement": "Mean % weed control", "setting": "[3]; 696 h", "result": 20, "unit": "%"}, {"measurement": "Mean % weed control", "setting": "[4]; [8]", "result": 50, "unit": "%"}, {"measurement": "Mean % weed control", "setting": "[4]; 14 days, penoxsulam 10 g ai/ha alone", "result": 78.33, "unit": "%"}, {"measurement": "Mean % weed control", "setting": "[4]; [9]", "result": 33.33, "unit": "%"}, {"measurement": "Mean % weed control", "setting": "[4]; [10]", "result": 66.67, "unit": "%"}, {"measurement": "Mean % weed control", "setting": "[4]; [11]", "result": 33.33, "unit": "%"}, {"measurement": "Mean % weed control", "setting": "[4]; [12]", "result": 66.67, "unit": "%"}, {"measurement": "Mean % weed control", "setting": "[5]; [9]", "result": 20, "unit": "%"}, {"measurement": "Mean % weed control", "setting": "[5]; [11]", "result": 10, "unit": "%"}, {"measurement": "Mean % weed control", "setting": "[6]; [10]", "result": 76.67, "unit": "%"}, {"measurement": "Mean % weed control", "setting": "[6]; [11]", "result": 20, "unit": "%"}, {"measurement": "Mean % weed control", "setting": "[6]; [12]", "result": 63.33, "unit": "%"}, {"measurement": "Mean % weed control", "setting": "[7]; [8]", "result": 26.67, "unit": "%"}, {"measurement": "Mean % weed control", "setting": "[7]; [9]", "result": 13.33, "unit": "%"}, {"measurement": "Mean % weed control", "setting": "[7]; 29 days, penoxsulam 5 g ai/ha alone", "result": 95, "unit": "%"}, {"measurement": "Mean % weed control", "setting": "[7]; 46 days, penoxsulam 5 g ai/ha alone", "result": 43.33, "unit": "%"}]}
{"compound": "CCOCCN(C(=O)CCl)C(=C(C)C)c1ccccc1", "note": "[Pethoxamid, 2-chloro-N-(ethoxyethyl)-N-(2-methyl-1-phenylprop-1-enyl)acetamide]", "values": [{"measurement": "Mean % weed control", "setting": "[1]; pethoxamid 1200 g ai/ha alone", "result": 72.33, "unit": "%"}, {"measurement": "Mean % weed control", "setting": "[2]; pethoxamid 1200 g ai/ha alone", "result": 0, "unit": "%"}, {"measurement": "Mean % weed control", "setting": "[3]; KICEL, 29 days, pethoxamid 1200 g ai/ha alone", "result": 0, "unit": "%"}, {"measurement": "Mean % weed control", "setting": "[4]; [13]", "result": 33.33, "unit": "%"}, {"measurement": "Mean % weed control", "setting": "[4]; [14]", "result": 13.33, "unit": "%"}, {"measurement": "Mean % weed control", "setting": "[4]; [15]", "result": 13.33, "unit": "%"}, {"measurement": "Mean % weed control", "setting": "[5]; [14]", "result": 3.33, "unit": "%"}, {"measurement": "Mean % weed control", "setting": "[5]; [15]", "result": 0, "unit": "%"}, {"measurement": "Mean % weed control", "setting": "[6]; [14]", "result": 33.33, "unit": "%"}, {"measurement": "Mean % weed control", "setting": "[6]; [15]", "result": 16.67, "unit": "%"}, {"measurement": "Mean % weed control", "setting": "[7]; [13]", "result": 26.67, "unit": "%"}, {"measurement": "Mean % weed control", "setting": "[7]; [14]", "result": 6.67, "unit": "%"}, {"measurement": "Mean % weed control", "setting": "[7]; 29 days, pethoxamid 1200 g ai/ha alone", "result": 0, "unit": "%"}, {"measurement": "Mean % weed control", "setting": "[7]; 46 days, pethoxamid 1200 g ai/ha alone", "result": 16.67, "unit": "%"}]}
